From the supplement of paper PMC10307832

How the values were obtained:
Test in all cases: relative viability (nuclei count vs DMSO), 5 days (fraction); higher = more cells survive
Doxorubicin = compound: COc1cccc2c1C(=O)c1c(O)c3c(c(O)c1C2=O)C[C@@](O)(C(=O)CO)C[C@@H]3O[C@H]1C[C@H](N)[C@H](O)[C@H](C)O1 [Doxorubicin]
Outline: (§1)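 Vehicle-anchored 1536-well plates of lung cancer cell lines, held overnight at 37 °C, were pinned with five library-drug doses (not always all listed) spaced by √10. No medium change followed over the next 5 days, after which the cells were fixed, permeabilised and Hoechst-stained together and imaged at 4×. Nuclei were counted with MetaXpress, and viability is treated-well nuclei over vehicle-well nuclei, taken as a median across plates. Plates passed with control CV below 25% and at least one doubling.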

BAY61-3606 = compound: COC1=C(C=C(C=C1)C2=CC3=NC=CN3C(=N2)NC4=C(C=CC=N4)C(=O)N)OC [BAY61-3606]
Outline: as §1

Doxorubicin + Pemetrexed = compound: COc1cccc2c1C(=O)c1c(O)c3c(c(O)c1C2=O)C[C@@](O)(C(=O)CO)C[C@@H]3O[C@H]1C[C@H](N)[C@H](O)[C@H](C)O1 [Doxorubicin] + Nc1nc2[nH]cc(CCc3ccc(C(=O)N[C@@H](CCC(=O)O)C(=O)O)cc3)c2c(=O)[nH]1 [Pemetrexed] (partner 0.2 µM)
Outline: (§2)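 A single step with final 0.05% Triton X-100, 1% formaldehyde and 1 ug/ml Hoechst fixed the cells and stained nuclei 5 days after treatment. Lung cancer cell lines in 1536-well plates had been treated by pin tool the day after seeding with one drug alone or a fixed anchor-drug dose plus five library-drug doses (not always all listed) in √10 steps, and nuclei were counted on 4× images. Relative viability is the ratio of nuclei in treated wells to nuclei in vehicle wells, taken as the median of duplicate plates.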

BAY61-3606 + OSI-027 = compound: COC1=C(C=C(C=C1)C2=CC3=NC=CN3C(=N2)NC4=C(C=CC=N4)C(=O)N)OC [BAY61-3606] + COc1cccc2cc(-c3nc([C@H]4CC[C@H](C(=O)O)CC4)n4ncnc(N)c34)[nH]c12 [OSI-027] (partner 0.5 µM)
Outline: as §2

Row | Cell Line | relative viability (Doxorubicin; 0.001 µM) | relative viability (Doxorubicin; 0.003162 µM) | relative viability (Doxorubicin; 0.01 µM) | relative viability (Doxorubicin; 0.03162 µM) | relative viability (Doxorubicin; 0.1 µM) | relative viability (BAY61-3606; 0.02 µM) | relative viability (BAY61-3606; 0.06325 µM) | relative viability (BAY61-3606; 0.2 µM) | relative viability (BAY61-3606; 0.6325 µM) | relative viability (BAY61-3606; 2 µM) | relative viability (Doxorubicin + Pemetrexed; first compound 0.001 µM) | relative viability (Doxorubicin + Pemetrexed; first compound 0.003162 µM) | relative viability (Doxorubicin + Pemetrexed; first compound 0.01 µM) | relative viability (Doxorubicin + Pemetrexed; first compound 0.03162 µM) | relative viability (Doxorubicin + Pemetrexed; first compound 0.1 µM) | relative viability (BAY61-3606 + OSI-027; first compound 0.02 µM) | relative viability (BAY61-3606 + OSI-027; first compound 0.2 µM) | relative viability (BAY61-3606 + OSI-027; first compound 0.6325 µM) | relative viability (BAY61-3606 + OSI-027; first compound 2 µM) | relative viability (BAY61-3606 + OSI-027; first compound 0.06325 µM)
1 | HCC-44 | 0.998 | 0.992 | 0.941 | 1.03 | 0.894 | 0.947 | 0.989 | 1.03 | 1.03 | 1.05 | 0.625 | 0.698 | 0.625 | 0.685 | 0.63 | 0.562 | 0.474 | 0.583 | 0.548 | 
2 | HCC-78 | 1 | 0.999 | 0.851 | 0.955 | 0.954 | 1.04 | 0.934 | 0.973 | 0.985 | 1.08 | 0.946 | 0.889 | 0.927 | 0.909 | 0.888 | 0.411 | 0.404 | 0.351 | 0.427 | 0.393
3 | HCC-366 | 0.909 | 0.991 | 1.02 | 0.959 | 0.587 | 0.988 | 1.03 | 1.01 | 0.96 | 0.903 | 0.301 | 0.18 | 0.171 | 0.201 | 0.161 | 1.07 | 0.81 | 0.862 | 0.715 | 0.875
4 | HCC-827 | 1.01 | 1.01 | 1.04 | 1.03 | 1 | 1.02 | 1.01 | 1.06 | 1.1 | 0.994 | 0.272 | 0.281 | 0.22 | 0.247 | 0.261 | 0.698 | 0.817 | 0.803 | 0.787 | 0.845
5 | HOP-62 | 0.937 | 1.04 | 1 | 1.04 | 1.02 | 0.969 | 1 | 0.954 | 0.956 | 0.964 | 0.356 | 0.34 | 0.302 | 0.25 | 0.349 | 0.859 | 0.774 | 0.786 | 0.714 | 0.838
6 | IA-LM | 0.902 | 1.04 | 0.889 | 0.749 | 0.508 | 0.984 | 0.864 | 0.956 | 1.03 | 0.86 |  |  |  |  |  |  |  |  |  | 
7 | LC-2-ad | 0.883 | 0.909 | 0.948 | 0.943 | 0.793 | 1.07 | 1.01 | 0.932 | 1.04 | 0.841 | 0.267 | 0.255 | 0.264 | 0.305 | 0.288 | 0.853 | 0.8 | 0.997 | 0.654 | 0.772
8 | LCLC-97TM1 | 0.909 | 1.11 | 0.909 | 0.822 | 0.749 | 1.06 | 1.07 | 1 | 0.892 | 1.01 | 0.188 | 0.179 | 0.179 | 0.17 | 0.181 | 0.515 | 0.581 | 0.423 | 0.392 | 0.608
9 | LCLC-103H | 0.966 | 1.04 | 0.981 | 1.02 | 0.957 | 1.07 | 0.992 | 0.993 | 1.03 | 0.987 | 0.499 | 0.484 | 0.458 | 0.467 | 0.466 | 0.472 | 0.478 | 0.425 | 0.439 | 0.434
10 | LK-2 | 0.903 | 1.08 | 0.829 | 0.788 | 1.08 | 1.08 | 0.939 | 1.06 | 1.09 | 0.923 | 0.225 | 0.255 | 0.228 | 0.26 | 0.238 | 0.197 | 0.22 | 0.231 | 0.185 | 0.16
11 | LOU-NH91 | 0.692 | 0.948 | 1.05 | 0.914 | 0.761 | 0.991 | 0.816 | 0.965 | 0.996 | 0.862 |  | 0.415 | 0.359 | 0.365 | 0.276 | 0.743 | 0.766 | 0.719 | 0.708 | 0.725
12 | LU99A | 0.938 | 1.02 | 0.893 | 0.838 | 0.813 | 1.04 | 0.953 | 1.01 | 0.967 | 0.702 | 0.199 | 0.186 | 0.191 | 0.173 | 0.165 | 0.315 | 0.298 | 0.26 | 0.306 | 0.271
13 | LXF-289 | 0.952 | 1.03 | 1.01 | 1.05 | 1.01 | 0.95 | 1.07 | 0.874 | 1.04 | 1.05 | 0.95 | 0.917 | 0.839 | 1.03 | 0.929 | 0.938 | 0.687 | 0.888 | 0.825 | 0.834
14 | NCI-H727 | 0.874 | 0.971 | 0.76 | 0.928 | 0.812 | 1 | 0.923 | 0.983 | 1.01 | 0.901 |  |  |  |  |  | 0.604 | 0.71 | 0.688 | 0.513 | 0.559
15 | NCI-H1299 | 1.02 | 1.05 | 0.984 | 1.02 | 0.943 | 1.02 | 1.01 | 1.02 | 1.04 | 0.989 |  |  |  |  |  |  |  |  |  | 
16 | NCI-H1623 | 0.934 | 0.968 | 0.965 | 0.947 | 0.992 | 0.892 | 0.891 | 0.911 | 0.953 | 0.927 |  |  |  |  |  | 0.417 | 0.504 | 0.418 | 0.412 | 0.427
17 | NCI-H1703 | 0.857 | 0.936 | 0.812 | 0.4 | 0.351 | 1.16 | 0.789 | 0.77 | 0.919 | 0.558 |  |  |  |  |  |  |  |  |  | 
